Laboratory results published in US6693072B2, “Elastase inhibitors” (Aventis Pharmaceuticals Inc., priority 1994, dated 2004).

Columns and labels:
[1] = target: T1, human neutrophil elastase (Homo sapiens, UniProt P08246); assay: Human neutrophil elastase in vitro inhibition assay, N-MeOSuc-Ala-Ala-Pro-Val-p-nitroanilide substrate; format: biochemical; conditions: for human neutrophil elastase, using N-MeOSucAlaAlaProVal-pNA as substrate; enzyme purified from human sputum
T1 construct: Enzyme is purified from human sputum, although recently it has become commercially available; from tissue; host or cells: human sputum
T1 sequence (P08246 30-247 limits assumed): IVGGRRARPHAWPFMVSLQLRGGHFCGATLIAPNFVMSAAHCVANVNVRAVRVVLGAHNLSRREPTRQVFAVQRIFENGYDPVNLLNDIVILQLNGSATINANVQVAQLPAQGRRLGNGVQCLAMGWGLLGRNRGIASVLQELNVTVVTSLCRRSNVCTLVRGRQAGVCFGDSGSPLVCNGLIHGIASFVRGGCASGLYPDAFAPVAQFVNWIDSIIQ
Method: Human neutrophil elastase is assayed in vitro using N-MeOSuc-[…]-nitroanilide, available commercially, as substrate. The assay buffer, pH and assay techniques are similar to those described by Mehdi, et al., Biochemical and Biophysical Research Communications, 166, 595 (1990). Enzyme is purified from human sputum, although recently it has become commercially available. Kinetic characterization of immediate inhibitors is by means of the Dixon plot, whereas the characterization of slow- and/or tight-binding inhibitors used data analysis techniques reviewed by Williams and Morrison. The synthesis and analytical use of a highly sensitive and convenient substrate of elastase is described in J. Bieth, B. Spiess and C. G. Wermuth, Biochemical Medicine, 11 (1974)350-375.

[2] = target: human neutrophil elastase (human) (UniProt P08246); assay: in vitro enzyme inhibition kinetics of human neutrophil elastase, substrate N-MeOSuc-Ala-Ala-Pro-Val-p-nitroanilide

| Compound | Ki [1] [nM] | Ki [2] [nM] |
| --- | --- | --- |
| CC(C)C(NC(=O)C1CCCCN1C(=O)[C@@H](NC(=O)c1ccc(C(=O)N2CCOCC2)cc1)C(C)C)C(=O)C(F)(F)C(F)(F)F (mixture of isomers) [MDL 105,759, N-[4-(4-morpholinylcarbonyl)benzoyl]-L-valyl-N′-[3,3,4,4,4-pentafluoro-1-(1-methylethyl)-2-oxobutyl]-D,L-2-pipecolinamide] | 150 | – |
| CC(C)C(NC(=O)[C@H]1CCN1C(=O)[C@@H](NC(=O)c1ccc(C(=O)N2CCOCC2)cc1)C(C)C)C(=O)C(F)(F)C(F)(F)F (stereo partly drawn) [MDL 104,238, N-[4-(4-morpholinylcarbonyl)benzoyl]-L-valyl-N′-[3,3,4,4,4-pentafluoro-1-(1-methylethyl)-2-oxobutyl]-L-2-azetamide] | 34 | – |
| CC(C)C(NC(=O)[C@H]1C[C@@H](OCc2ccccc2)CN1C(=O)[C@@H](NC(=O)c1ccc(C(=O)N2CCOCC2)cc1)C(C)C)C(=O)C(F)(F)C(F)(F)F (stereo partly drawn) [MDL 104,865, N-[4-(4-morpholinylcarbonyl)benzoyl]-L-valyl-N′-[3,3,4,4,4-pentafluoro-1-(1-methylethyl)-2-oxobutyl]-trans-4-benzyloxyprolinamide] | 20 | – |
| N-[4-(4-morpholinylcarbonyl)benzoyl]-L-valyl-N'-[3,3,4,4,4-pentafluoro-1-(1-methylethyl)-2-oxobutyl]-trans-4-acetoxyprolinamide (peptide) | – | 40 |
